Patent US20110263693A1, “CELASTROL, GEDUNIN, AND DERIVATIVES THEREOF AS HSP90 INHIBITORS” (DANA-FARBER CANCER INSTITUTE, INC., priority 2006, published 2011)

How the values were obtained:
celastrol signature = assay: Connectivity Map query with the celastrol signature; format: cell-based, human; design: key to celastrol score (connectivity score): connectivity score, based on Kolmogorov-Smirnov statistic; conditions: for celastrol score (connectivity score): enrichment of the celastrol signature (1.25 μM celastrol at 6 h, LNCaP) in the compound's Connectivity Map profiles, 6 hr treatment; for celastrol rank: rank by celastrol score among 164 Connectivity Map compounds
Description: (§1) Indeed, a major challenge in cell-based chemical biology and chemical genomics is the identification of compounds' targets (Gardner et al., 2003). We hypothesized that gene expression signatures could be used to identify compound action based on the similarity of such compound-induced signatures to signatures of existing drugs of known mechanism. We therefore employed a collection of gene expression profiles of drug-treated cell lines that was developed in our lab, termed the Connectivity Map (Lamb et al., 2006). This database comprises 453 genome-wide Affymetrix expression profiles derived from the treatment of human cell lines with 164 small molecules, primarily FDA-approved drugs. A 6 hr treatment time was chosen in an attempt to capture the primary, and potentially mechanistic, effects of the compounds rather than the downstream phenotypic consequences.
(§2) In order to use the Connectivity Map to gain insight into celastrol and gedunin function, we first defined a gene expression signature of celastrol and gedunin activity. The expression signatures of celastrol and gedunin were derived by expression profiling of RNA from LNCaP cells treated with celastrol (1.25 μM), gedunin (20 μM), and vehicle (DMSO) for 6 hr; signatures were defined using comparative marker selection to identify transcripts that distinguished between the compound- and vehicle-treated profiles by the signal-to-noise (SNR) metric. The enrichment of these signatures in the gene expression profiles of the Connectivity Map database was then assessed using a gene enrichment metric, the connectivity score, based on the Kolmogorov-Smirnov statistic (Lamb et al., 2003).
(§3) The celastrol and gedunin signatures were developed from RMA-processed microarray data from LNCaP cells treated with 1.25 μM celastrol or 20 μM gedunin for 6 hours. Comparative marker selection was used to identify markers that distinguished celastrol- and/or gedunin-treated samples from vehicle-treated samples by the median SNR (Golub et al., 1999). The top 50 markers that increased and decreased relative to vehicle-treated controls were used as the signatures.
(§4) The current version of the Connectivity Map data set (build01) contains genome-wide expression data for 453 treatment and vehicle control pairs, representing 164 distinct small molecules. Cell treatments and Affymetrix profiling were predominantly carried out in MCF7 cells with 6 hr treatments as detailed (Table 4) (Lamb et al., 2006). Enrichment of the induced and repressed genes of a signature within each Connectivity Map treatment profile was estimated with a metric based on the Kolmogorov-Smirnov statistic as described (Lamb et al., 2003, Lamb et al., 2006). Connectivity Map data are available at www.broad.mit.edu/cmap/ and GEO (accession number GSE5258).
(§5) For the celastrol and gedunin signatures, RMA-processed data was filtered and thresholded (min fold change=2, min absolute change=50, floor=10, ceiling=16000). Comparative marker selection (GenePattern) was used to identify markers that distinguished celastrol- and/or gedunin-treated samples from vehicle-treated samples by the median SNR. The top fifty markers that increased and decreased relative to vehicle treated controls were used as the celastrol, gedunin, or joint celastrol/gedunin signatures.
(§6) The current version of The Connectivity Map dataset (build01) contains genome-wide expression data for 453 treatment and vehicle control pairs, representing 164 distinct small molecules. Cell treatments were predominantly carried out in the MCF7 cell line for 6 h as detailed in Table 4. Affymetrix profiling was then carried out as described (Lamb et al., 2006).

gedunin signature = assay: Connectivity Map query with the gedunin signature; format: cell-based, human; design: key to gedunin score (connectivity score): connectivity score, based on Kolmogorov-Smirnov statistic; conditions: for gedunin score (connectivity score): enrichment of the gedunin signature (20 μM gedunin at 6 hours, LNCaP) in the compound's Connectivity Map profiles, 6 hr treatment; for gedunin rank: rank by gedunin score among 164 Connectivity Map compounds
Description: as §1, §2, §3, §4, §5, §6

Row | Molecule | celastrol score (connectivity score) (celastrol signature) | celastrol rank (celastrol signature) | gedunin score (connectivity score) (gedunin signature) | gedunin rank (gedunin signature)
1 | CC(=O)OCOC(c1ccc2ccccc2c1)P(=O)(OCOC(C)=O)OCOC(C)=O (stereo not shown) [HNMPA-(AM)3] | 0 | 103 | 0.365 | 36
2 | C[C@@H]1C[C@H]2[C@@H]3CCC4=CC(=O)C=C[C@]4(C)[C@@]3(F)[C@@H](O)C[C@]2(C)[C@@]1(O)C(=O)CO [dexamethasone, reference compound] | 0 |  | 0 | 
3 | CC1(C)O[C@@H]2[C@@H](CO[C@@]3(COS(N)(=O)=O)OC(C)(C)O[C@@H]23)O1 [topiramate] | 0 |  | 0 | 
4 | N#CC(=C(N)Sc1ccccc1)C(C#N)=C(N)Sc1ccccc1 [U0125] | 0 | 106 | 0 | 122
5 | depudecin | 0.22 |  | 0.176 | 
6 | CCCCCCCCCCCCCCCC(=O)N[C@H](CN1CCOCC1)[C@H](O)c1ccccc1 (racemic) [DL-PPMP] | 0 | 138 | 0 | 110
7 | BW-B70C | 0.719 | 10 | 0.557 | 12
8 | CC(=O)c1c(O)c(C)c(O)c(Cc2c(O)c3c(c(C(=O)/C=C/c4ccccc4)c2O)OC(C)(C)C=C3)c1O [rottlerin] | 0.355 |  | 0.209 | 
9 | C=C[C@@]1(C)CC(=O)[C@]2(O)[C@@]3(C)[C@@H](O)CCC(C)(C)[C@@H]3[C@H](O)[C@H](OC(C)=O)[C@@]2(C)O1 [colforsin] | 0 |  | 0 | 
10 | CC(/C=C/C(=O)NO)=C\[C@@H](C)C(=O)c1ccc(N(C)C)cc1 [trichostatin A] | −0.02 | 141 | 0.427 | 29
11 | CN(C)CCC=C1c2ccccc2CCc2ccccc21 [amitriptyline] | 0 |  | 0 | 
12 | Nc1c(O)cccc1C(=O)CC(N)C(=O)O (racemic) [3-hydroxy-DL-kynurenine] | 0 | 136 | 0 | 96
13 | CC1=C(CC(=O)O)c2cc(F)ccc2/C1=C\c1ccc(S(C)(=O)=O)cc1 [exisulind] | −0.038 |  | −0.277 | 
14 | O=C1CCc2c(ccc3ccccc23)O1 [splitomicin] | −0.525 |  | 0 | 
15 | O=c1c(-c2ccc(O)cc2)coc2cc(O)cc(O)c12 [genistein] | 0.153 |  | 0.097 | 
16 | CCCNC(=O)NS(=O)(=O)c1ccc(Cl)cc1 [chlorpropamide] | 0 |  | 0 | 
17 | C=C1[C@@H](C)[C@H]2[C@H](Cc3ccccc3)NC(=O)[C@]23OC(=O)/C=C/[C@H](O)CCC[C@@H](C)C/C=C/[C@H]3[C@@H]1O [cytochalasin B] | 0 | 125 | 0.476 | 22
18 | CCCCNC(=O)NS(=O)(=O)c1ccc(C)cc1 [tolbutamide] | 0.497 |  | 0 | 
19 | CSc1ccc(/C=C2/C(C)=C(CC(=O)O)c3cc(F)ccc32)cc1 [sulindac sulfide] | 0 |  | 0 | 
20 | CC1=C(CC(=O)O)c2cc(F)ccc2/C1=C\c1ccc([S+](C)[O-])cc1 (stereo not shown) [sulindac] | 0.207 |  | 0.177 | 

Row | Molecule | celastrol score (connectivity score) (celastrol signature) | celastrol rank (celastrol signature) | gedunin score (connectivity score) (gedunin signature) | gedunin rank (gedunin signature)
21 | Clc1ccccc1C(c1ccccc1)(c1ccccc1)n1ccnc1 [clotrimazole] | 0.557 |  | 0.577 | 
22 | N=C(N)c1ccc(OCCCCCOc2ccc(C(=N)N)cc2)cc1 [pentamidine] | 0 |  | 0.456 | 
23 | CC(=O)O[C@H]1C(=O)[C@@]2(C)[C@H]([C@H](OC(=O)c3ccccc3)[C@]3(O)C[C@H](OC(=O)[C@H](O)[C@@H](NC(=O)c4ccccc4)c4ccccc4)C(C)=C1C3(C)C)[C@]1(OC(C)=O)CO[C@@H]1C[C@@H]2O [paclitaxel] | 0.319 |  | 0 | 
24 | C=CC[C@@H]1/C=C(\C)C[C@H](C)C[C@H](OC)[C@H]2O[C@@](O)(C(=O)C(=O)N3CCCC[C@H]3C(=O)O[C@H](/C(C)=C/[C@@H]3CC[C@@H](O)[C@H](OC)C3)[C@H](C)[C@@H](O)CC1=O)[C@H](C)C[C@@H]2OC [tacrolimus] | 0 |  | 0 | 
25 | CN[C@@H]1C[C@H]2O[C@@](C)([C@@H]1OC)n1c3ccccc3c3c4c(c5c6ccccc6n2c5c31)C(=O)NC4 [staurosporine] | 0.092 |  | 0 | 
26 | Clc1ccc(C(c2ccc(Cl)cc2)n2cc[n+](CC(OCc3ccc(Cl)cc3Cl)c3ccc(Cl)cc3Cl)c2)cc1 (stereo not shown) [calmidazolium] | 0.334 |  | 0.619 | 
27 | O=C(CCCCCCC(=O)Nc1ccccc1)NO [vorinostat] | 0 |  | 0.554 | 
28 | C[C@]12C=CC(=O)C=C1CC[C@@H]1[C@@H]2[C@@H](O)C[C@@]2(C)[C@H]1CC[C@]2(O)C(=O)CO [prednisolone] | 0 |  | 0 | 
29 | CN(C)c1ccc(O)c2c1C[C@H]1C[C@H]3[C@H](N(C)C)C(O)=C(C(N)=O)C(=O)[C@@]3(O)C(O)=C1C2=O [minocycline] | 0 |  | 0 | 
30 | [H]/N=C(/N)N/C(=N/[H])NCCc1ccccc1 [phenformin] | 0.355 |  | 0 | 
31 | O=c1c(O)c(-c2ccc(O)c(O)c2)oc2cc(O)ccc12 [fisetin] | 0 |  | 0 | 
32 | Nc1nc2nc[nH]c2c(=S)[nH]1 [tioguanine] | 0 |  | −0.613 | 
33 | C[C@]12CC[C@@H]3c4ccc(O)cc4CC[C@H]3[C@@H]1CC[C@@H]2O [estradiol] | 0.017 |  | −0.166 | 
34 | O=c1cc(N2CCOCC2)oc2c(-c3ccccc3)cccc12 [LY-294002] | −0.512 |  | 0 | 
35 | C[C@@H]1NC(=O)[C@H]2CCCN2C(=O)[C@H](CCCCCC(=O)[C@@H]2CO2)NC(=O)[C@@H](C)NC1=O [HC toxin] | 0 | 90 | 0.526 | 15
36 | C[C@]12CCC(=O)C=C1CC[C@H]1[C@@H]3CC[C@](O)(C(=O)CO)[C@@]3(C)C[C@H](O)[C@@]12F [fludrocortisone] | 0 |  | 0 | 
37 | O=C1CCC(N2C(=O)c3ccccc3C2=O)C(=O)N1 (stereo not shown) [thalidomide] | −0.256 |  | 0.121 | 
38 | CCOC(=O)C1=C(C)NC(C)=C(C(=O)OC)C1c1cccc([N+](=O)[O-])c1 (stereo not shown) [nitrendipine] | 0 |  | 0 | 
39 | C[C@]12CC[C@@H]3c4ccc(O)cc4CC[C@H]3[C@@H]1CC[C@H]2O [alpha-estradiol] | −0.066 |  | 0.045 | 
